{"source": "patent US11738065B2", "about": "“Polypeptides and analogues thereof for use in the treatment of diabetes and bone disorders” (UNIVERSITY OF ULSTER, priority 2015, dated 2023)", "key": {"[1]": {"system": "BRIN-BD11 cells", "experiment": "In vitro insulin secretion from BRIN-BD11 cells", "type": "cell-based", "method": "BRIN-BD11 cells were used to assess the insulin releasing activity of polypeptides as described by […] et al., 1996 (Diabetes. 1996 August; 45(8):1132-40). Cells were cultured in RPMI-1640 growth media supplemented with 10% (v/v) foetal bovine serum (FBS) and 1% (v/v) antibiotics (penicillin (100 U/ml), streptomycin ([…])), in 75 cm2 sterile tissue culture flasks (Greiner bio-one, UK) maintained at 37° C. and 5% CO2 in a LEEC incubator (Laboratory technical engineering, Nottingham, UK). BRIN-BD11 cells were then seeded at a density of 150,000 cells/well in 24-well plates (Nunc, Roskilde, Denmark) and allowed to attach overnight at 37° C."}, "[2]": {"system": "lean control mice", "experiment": "Acute and persistent glucose lowering and insulin releasing effects in lean control mice", "type": "in vivo", "method": "All animal experiments were carried out in accordance with the UK Animals (Scientific Procedures) Act 1986. For food intake studies, fasted (18 h) mice were given intraperitoneal (i.p) injections of polypeptides at a dose of 25, 100 or 250 nmol/kg bw. Mice were then allowed free access to normal chow for 180 mins and cumulative food intake measured. […] Blood samples were collected from the cut tip on the tail vein of conscious mice into chilled fluoride/heparin glucose micro-centrifuge tubes (Sarstedt, Numbrecht, Germany) at the time points indicated in the Drawings. Blood glucose was measured directly using a hand-held Ascencia Contour blood glucose meter (Bayer Healthcare, Newbury, Berkshire, UK)."}, "[3]": {"system": "high fat fed mice", "experiment": "Sub chronic 21 day twice daily study in high fat fed mice (energy intake, body weight, body composition, glucose, insulin)", "type": "in vivo", "conditions": "25 nmol/kg twice daily", "method": "All animal experiments were carried out in accordance with the UK Animals (Scientific Procedures) Act 1986. […] On day 21, a non-fasted 24 h glucose profile was conducted. […] HOMA-IR was determined using the equation HOMA-IR=fasting glucose (mmol/l)×fasting insulin (mU/l)/22.5. […] Terminal analysis included measurement of total body fat and lean mass by DEXA scanning (Piximus Densitometer, Inside Outside Sales, Madison Wis., USA) and extraction of pancreatic tissue for analysis as detailed below. […] Briefly, pancreatic tissues were fixed in 4% parafolmaldehyde at 4° C. for 48 h. Pancreata were then embedded in paraffin wax and processed using an automated tissue processor (Leica TP1020, Leica Microsystems, Nussloch, Germany). […] Abcam, ab6995) or guinea-pig anti-glucagon antibody (PCA2/4, 1:400; raised in-house). […] The slides were viewed under a FITC (488 nm) or TRITC filter (594 nm) using a fluorescent microscope (Olympus system microscope, model BX51) and photographed using a DP70 camera adapter system. Islet parameters were analysed using Cell^F image analysis software (Olympus Soft Imaging Solutions, GmbH). Blood samples were collected from the cut tip on the tail vein of conscious mice into chilled fluoride/heparin glucose micro-centrifuge tubes (Sarstedt, Numbrecht, Germany) at the time points indicated in the Drawings. Blood glucose was measured directly using a hand-held Ascencia Contour blood glucose meter (Bayer Healthcare, Newbury, Berkshire, UK)."}, "[4]": {"system": "high fat fed mice", "experiment": "Insulin sensitivity test and HOMA-IR after 21 days treatment", "type": "in vivo", "method": "On day 21, a non-fasted 24 h glucose profile was conducted. […] HOMA-IR was determined using the equation HOMA-IR=fasting glucose (mmol/l)×fasting insulin (mU/l)/22.5. […] Terminal analysis included measurement of total body fat and lean mass by DEXA scanning (Piximus Densitometer, Inside Outside Sales, Madison Wis., USA) and extraction of pancreatic tissue for analysis as detailed below. […] Briefly, pancreatic tissues were fixed in 4% parafolmaldehyde at 4° C. for 48 h. Pancreata were then embedded in paraffin wax and processed using an automated tissue processor (Leica TP1020, Leica Microsystems, Nussloch, Germany). Immunohistochemistry was performed as described by Vasu et al., 2014 (PLoS One. 2014 Jun. 26; 9(6):e101005). […] Abcam, ab6995) or guinea-pig anti-glucagon antibody (PCA2/4, 1:400; raised in-house). […] The slides were viewed under a FITC (488 nm) or TRITC filter (594 nm) using a fluorescent microscope (Olympus system microscope, model BX51) and photographed using a DP70 camera adapter system. Islet parameters were analysed using Cell^F image analysis software (Olympus Soft Imaging Solutions, GmbH)."}, "[5]": {"conditions": "25 nmol/kg 4 h before glucose 18 mmol/kg, vs saline"}}, "data": [{"smiles": "CC[C@H](C)[C@H](NC(=O)[C@H](CO)NC(=O)[C@H](Cc1ccc(O)cc1)NC(=O)[C@H](CC(=O)O)NC(=O)[C@H](CO)NC(=O)[C@@H](NC(=O)[C@H](Cc1ccccc1)NC(=O)[C@@H](NC(=O)CNC(=O)[C@H](CCC(=O)O)NC(=O)[C@@H](C)NC(=O)[C@@H](N)Cc1ccc(O)cc1)[C@@H](C)O)[C@@H](C)CC)C(=O)N[C@@H](C)C(=O)N[C@@H](CCSC)C(=O)N[C@@H](CC(=O)O)C(=O)N[C@@H](CCCCN)C(=O)N[C@H](C(=O)N[C@@H](Cc1c[nH]cn1)C(=O)N[C@@H](CCC(N)=O)C(=O)N[C@@H](CCC(N)=O)C(=O)N[C@@H](CC(=O)O)C(=O)N[C@@H](Cc1ccccc1)C(=O)N[C@H](C(=O)N[C@@H](CC(N)=O)C(=O)N[C@@H](Cc1c[nH]c2ccccc12)C(=O)N[C@@H](CC(C)C)C(=O)N[C@@H](CC(C)C)C(=O)N[C@@H](C)C(=O)N[C@@H](CCC(N)=O)C(=O)N[C@@H](CCCCN)C(=O)NCC(=O)N[C@@H](CCCCN)C(=O)N[C@@H](CCCCN)C(=O)N[C@@H](CC(N)=O)C(=O)N[C@@H](CC(=O)O)C(=O)N[C@@H](Cc1c[nH]c2ccccc12)C(=O)N[C@@H](CCCCN)C(=O)N[C@@H](Cc1c[nH]cn1)C(=O)N[C@@H](CC(N)=O)C(=O)N[C@H](C(=O)N[C@H](C(=O)N[C@@H](CCC(N)=O)C(=O)O)[C@@H](C)O)[C@@H](C)CC)C(C)C)[C@@H](C)CC", "note": "[(DAla2)GIP, TYR-(d)ALA-GLU-GLY-THR-PHE-ILE-SER-ASP-TYR-SER-ILE-ALA-MET-ASP-LYS-ILE-HIS-GLN-GLN-ASP-PHE-VAL-ASN-TRP-LEU-LEU-ALA-GLN-LYS-GLY-LYS-LYS-ASN-ASP-TRP-LYS-HIS-ASN-ILE-THR-GLN]", "values": [{"measurement": "Insulin secretion from BRIN-BD11 cells", "setting": "[1]; 10^−6 mol/l peptide, 20 min, vs 5.6 and 16.7 mmol/l glucose control", "value": "significantly (P<0.05 to P<0.001) stimulated insulin secretion"}, {"measurement": "Insulin release from BRIN-BD11 cells", "setting": "[1]; 10^−8 M peptide, vs 5.6 and 16.7 mmol/l glucose controls respectively", "value": "significant (P<0.001 and P<0.01; respectively) increases in insulin release"}, {"measurement": "Overall AUC blood glucose, peptide 4 h prior to glucose load", "setting": "[2]; [5]", "value": "significantly reduced"}, {"measurement": "Plasma insulin AUC, peptide 4 h prior to glucose load", "setting": "[2]; [5]", "value": "increased plasma insulin AUC values (P<0.05)"}, {"measurement": "Blood glucose at 15 min post-injection", "setting": "[2]; 25 nmol/kg with glucose 18 mmol/kg i.p.", "value": "significant (P<0.05) reduction in blood glucose levels"}, {"measurement": "Blood glucose at 30 min post injection", "setting": "[2]; 25 nmol/kg with glucose 18 mmol/kg i.p., non-fasted mice, vs glucose alone", "value": "significantly (P<0.05) lowered blood glucose values"}, {"measurement": "Overall 0-105 min AUC blood glucose", "setting": "[2]; 25 nmol/kg with glucose 18 mmol/kg i.p., vs glucose alone", "value": "significantly (P<0.05) decreased"}, {"measurement": "Non-fasting 24 h glucose profile on day 21", "setting": "[3]", "value": "also reduced, but not to the same extent"}, {"measurement": "Circulating plasma insulin", "setting": "[3]; 21 days", "value": "tendency for reduced plasma insulin levels"}, {"measurement": "Energy intake or body weight", "setting": "[3]; 21 days, vs high fat controls", "value": "no significant effect"}, {"measurement": "Total body fat and lean mass (DXA)", "setting": "[3]; after 21 days", "value": "unaltered"}, {"measurement": "Non-fasting blood glucose vs lean control mice", "setting": "[3]; from day 12 onwards", "value": "not significantly different from lean control mice"}, {"measurement": "HOMA-IR insulin sensitivity", "setting": "[4]; 21 days treatment, vs high fat controls", "value": "significantly (P<0.05) improved insulin sensitivity"}, {"measurement": "Individual blood glucose levels following exogenous insulin", "setting": "[4]; insulin 15 U/kg i.p., day 21, vs high fat controls", "value": "reduced, albeit non-significantly"}, {"measurement": "Overall glucose lowering effect of insulin (blood glucose AAC 0-60 min)", "setting": "[4]; insulin 15 U/kg i.p., day 21, vs saline control high fat mice", "value": "significantly (P<0.001) improved"}]}]}
